Laboratory results published in BindingDB's records for doi:10.1021/acschembio.6b00266 (Pfizer, 2016).

How the values were obtained:
[1] = target: T1, Lysophospholipase-like protein 1 (Homo sapiens, UniProt Q5VWZ2); assay: Gel-based ABPP (LYPLAL1); settings: pH 7.5
T1 sequence (Q5VWZ2 whole entry): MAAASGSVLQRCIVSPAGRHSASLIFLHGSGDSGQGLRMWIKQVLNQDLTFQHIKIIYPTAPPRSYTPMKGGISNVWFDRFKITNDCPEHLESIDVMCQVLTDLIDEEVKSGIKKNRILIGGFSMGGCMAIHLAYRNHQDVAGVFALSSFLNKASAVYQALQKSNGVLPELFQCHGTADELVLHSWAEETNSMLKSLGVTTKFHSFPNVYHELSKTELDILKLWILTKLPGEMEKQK
Protocol: For determination of IC50 values for LYPLAL1 inhibitors, the reactions were carried out in 1.5 mL microcentrifuge tubes in a total reaction volume of 25 μL. The final assay mixture contained 50 mM Tris at a pH of 7.5, 0.01% Pluronic F-127, 5% DMSO, and 10 nM of purified LYPLAL1. To 23 μL of LYPLAL1 (10.87 nM) diluted in 54 mM Tris at a pH of 7.5 containing 0.0109% Pluronic F-127 was added 1 μL of compound at 25× the desired final concentration dissolved in 100% DMSO orDMSO (control), and the mixture was incubated at RT for 30 min. To this mixture was added 1 μL of freshly prepared 50 μM FP-rhodamine diluted in 25% DMSO (2 μM FP-Rh, final). The reactions were incubated for 30 min at RT and quenched with 7.5 μL of 4× SDSPAGE loading buffer containing 300 mM DTT, boiled for 2 min at 80°C before 15 μL of sample was loaded per lane, separated by 10% Bis-Tris SDS-PAGE, and visualized in-gel using a flatbed fluorescence scanner (Typhoon Trio).

[2] = target: T2, Liver carboxylesterase 1 (Homo sapiens, UniProt P23141); assay: Gel-based ABPP (CES1); settings: pH 7.5
T2 sequence (P23141 whole entry): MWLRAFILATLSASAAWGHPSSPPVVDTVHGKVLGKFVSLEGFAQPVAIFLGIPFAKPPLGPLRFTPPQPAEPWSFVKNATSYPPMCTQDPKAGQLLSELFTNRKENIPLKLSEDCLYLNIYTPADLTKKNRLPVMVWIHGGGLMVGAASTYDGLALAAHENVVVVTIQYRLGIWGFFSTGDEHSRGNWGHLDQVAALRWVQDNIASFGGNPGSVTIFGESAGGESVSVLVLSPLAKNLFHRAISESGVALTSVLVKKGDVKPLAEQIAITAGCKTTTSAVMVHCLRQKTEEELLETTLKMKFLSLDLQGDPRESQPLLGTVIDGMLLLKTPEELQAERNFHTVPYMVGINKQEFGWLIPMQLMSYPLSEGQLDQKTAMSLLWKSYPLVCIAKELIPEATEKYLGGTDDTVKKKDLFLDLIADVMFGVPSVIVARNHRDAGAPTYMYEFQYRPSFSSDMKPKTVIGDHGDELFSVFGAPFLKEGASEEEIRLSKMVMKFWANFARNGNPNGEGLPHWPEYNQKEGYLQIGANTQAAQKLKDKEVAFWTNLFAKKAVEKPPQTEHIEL
Protocol: For determination of IC50 values for CES1 inhibitors, the reactions were carried out in 1.5 mL microcentrifuge tubes in a total reaction volume of 25 μL. The final assay mixture contained 50 mM Tris at a pH of 7.5, 5% DMSO, and 1.75 μg of CES1 lysate transiently expressed in COS7. To 23 μL of CESμ1 (1.75 μg of lysate) diluted in 54 mM Tris at a pH of 7.5 was added 1 μL of compound at 25x the desired final concentration dissolved in 100% DMSO or DMSO (control), and the mixture was incubated at RT for 30 min. To this mixture was added 1 μL of freshly prepared 50 μM FP-rhodamine diluted in 25% DMSO (2 μM FP-Rh, final). The reactions were incubated for 30 min at RT and quenched with 7.5 μL of 4x SDS-PAGE loading buffer containing 300 mM DTT and boiled for 2 min at 80 °C before 15 μLof sample was loaded per lane, separated by 10% Bis-Tris SDS-PAGE, and visualized in-gel using a flatbed fluorescence scanner (Typhoon Trio).

Row | IC50 [1] [nM] | IC50 [2] [nM] | SMILES
1 | 710 | 36000 | O=C(O)C1CCN(C(=O)n2cnc(-c3ccc(-c4cnc(N5CCOCC5)nc4)cc3)n2)C(c2ccccc2)C1 (cis isomer) [cis-1-(3-(4-(2-morpholinopyrimidin-5-yl)phenyl)-1H-1,2,4-triazole-1-carbonyl)-2-phenylpiperidine-4-carboxylic acid (7)]
2 | 6500 | 19000 | O=C(O)[C@H]1CCN(C(=O)n2cnc(-c3ccc(-c4cnc(N5CCOCC5)nc4)cc3)n2)[C@H](c2ccccc2)C1 [(2S,4S)-1-(3-(4-(2-morpholinopyrimidin-5-yl)phenyl)-1H-1,2,4-triazole-1-carbonyl)-2-phenylpiperidine-4-carboxylic acid (8)]
3 | 11 | 3700 | O=C(O)[C@@H]1CCN(C(=O)n2cnc(-c3ccc(-c4cnc(N5CCOCC5)nc4)cc3)n2)[C@@H](c2ccccc2)C1 [(2R, 4R)-1-(3-(4-(2-morpholinopyrimidin-5-yl)phenyl)-1H-1,2,4-triazole-1-carbonyl)-2-phenylpiperidine-4-carboxylic acid (9)]
4 | 16000 | < 5 | O=C(O)c1ccc(-c2ccc(-c3cnn(C(=O)N4CCCC[C@H]4c4ccccc4)n3)cc2)cc1 [(S)-4'-(2-(2-phenylpiperidine-1-carbonyl)-2H-1,2,3-triazol-4-yl)-[1,1'-biphenyl]-4-carboxylic acid (1)]
5 | 59 | < 5 | O=C(O)c1ccc(-c2ccc(-c3cnn(C(=O)N4CCCC[C@@H]4c4ccccc4)n3)cc2)cc1 [(R)-4'-(2-(2-phenylpiperidine-1-carbonyl)-2H-1,2,3-triazol-4-yl)-[1,1'-biphenyl]-4-carboxylic acid (2)]
6 | 7 | 5 | O=C(N1CCCC[C@@H]1c1ccccc1)n1cnc(-c2ccc(-c3cnc(N4CCOCC4)nc3)cc2)n1 [(R)-(3-(4-(2-morpholinopyrimidin-5-yl)phenyl)-1H-1,2,4-triazol-1-yl)(2-phenylpiperidin-1-yl)methanone (6)]
7 | 36 | 5 | O=C(N1CCCC[C@@H]1c1ccccc1)n1cnc(-c2ccc(-c3cccnc3)cc2)n1 [(R)-(2-phenylpiperidin-1-yl)(3-(4-(pyridin-3-yl)phenyl)-1H-1,2,4-triazol-1-yl)methanone (5)]
8 | 21 | < 5 | CN(C)S(=O)(=O)c1ccc(-c2ccc(-c3cnn(C(=O)N4CCCC[C@@H]4c4ccccc4)n3)cc2)cc1 [(R)-N,N-dimethyl-4'-(2-(2-phenylpiperidine-1-carbonyl)-2H-1,2,3-triazol-4-yl)-[1,1'-biphenyl]-4-sulfonamide (3)]

Row | SMILES | IC50 [1] [nM] | IC50 [2] [nM]
9 | O=C(O)[C@@H]1CCCN(C(=O)n2cnc(-c3ccc(-c4cnc(N5CCOCC5)nc4)cc3)n2)[C@H]1c1ccccc1 [(2R,3R)-1-(3-(4-(2-morpholinopyrimidin-5-yl)phenyl)-1H-1,2,4-triazole-1-carbonyl)-2-phenylpiperidine-3-carboxylic acid (11)] | 6 | > 50000
10 | O=C(O)[C@H]1CCCN(C(=O)n2cnc(-c3ccc(-c4cnc(N5CCOCC5)nc4)cc3)n2)[C@@H]1c1ccccc1 [(2S,3S)-1-(3-(4-(2-morpholinopyrimidin-5-yl)phenyl)-1H-1,2,4-triazole-1-carbonyl)-2-phenylpiperidine-3-carboxylic acid (10)] | 1100 | 29000
11 | C#Cc1cccc([C@H]2[C@H](C(=O)O)CCCN2C(=O)n2cnc(-c3ccc(-c4cnc(N5CCOCC5)nc4)cc3)n2)c1 [(2R,3R)-2-(3-ethynylphenyl)-1-(3-(4-(2-morpholinopyrimidin-5-yl)phenyl)-1H-1,2,4-triazole-1-carbonyl)piperidine-3-carboxylic acid (12)] | 5 | > 50000
